{"source": "patent US12043621B2", "about": "“Small molecule inhibitors of Interleukin-4” (Trustees of Boston University, priority 2020, dated 2024)", "key": {"[1]": {"system": "STAT-6 phosphorylation in THP-1 cells", "assay": "THP-1 STAT-6/pSTAT-6 Western blot assay", "format": "cell-based", "details": "Homo sapiens, THP-1, THP-1 cells, IL-4 preincubated with compound, read-out: EC50 of reduction in pSTAT-6 levels", "method": "THP-1 cells were maintained in RMPI-1640 with 10% heat-inactivated fetal bovine serum and 50 μM beta-mercaptoethanol. Cells used for assays were between passages 6 and 10. 10 ng/ml IL-4 was preincubated with experimental sample (vehicle, D9 etc) for 2 hours at 37° C. Solutions were then added to 2E6 THP-1 cells in 1 mL. THP-1 cells were incubated for 30 minutes in incubator at 37° C. 5% CO2. Cells were then spun down, lysed with 200 μL ice-cold RIPA buffer complete with phosphatase and protease inhibitors. Cell lysate was incubated on ice for 30 minutes and then stored at −20° C. until western blot analysis. Undiluted cell-lysate was run SDS-PAGE followed by transfer to membrane using Biorad equipment. Membranes were incubated with 1:1000 primary antibody overnight at 4° ° C. Membranes then incubated with 1:50,000 dilution secondary for 1 hour at RT. […] The brightness/contrast was adjusted in […] and the area under the curve of each lane was quantified.\nTHP-1 cells were maintained in RMPI-1640 with 10% heat-inactivated fetal bovine serum and 50 μM beta-mercaptoethanol. […] The brightness/contrast was adjusted in FIJI (FIGS. 15 and 16) and the area under the curve of each lane was quantified. The ratio of phosphorylated STAT6 to STAT6 was calculated and normalized to the amount of total STAT6. The data was plotted and analyzed using Graphpad Prism 8."}, "pSTAT6 in Ramos cells": {"system": "pSTAT6 in Ramos cells", "assay": "Reduction of pSTAT6 in Ramos cells (Western blot)", "format": "cell-based", "details": "Homo sapiens; Ramos cells (type I receptor complex); read-out: EC50 of pSTAT6 inhibition", "method": "Ramos cells were used as cell-based model of IL-4 inhibition. Ramos cells express type I receptor complex (IL-4Rα and γc)—they were used to confirm that the lead compound D9 (compound 1 in Table 3) inhibits IL-4 signaling in this context as well.\nThe assay was run as described in Example 2 and 3 for THP-1 cells. Blotting was conducted for pSTAT6 and STAT6 and the percent of pSTAT6 calculated based on total STAT6. All conditions were run in triplicate. The results are depicted in FIGS. 22-23."}, "IL-4": {"target": "T1, IL-4 (Homo sapiens, UniProt P05112)", "T1 construct": "purchased Acros Biosystems IL4-H4218; host or cells: HEK-293", "T1 sequence (P05112 25-153)": "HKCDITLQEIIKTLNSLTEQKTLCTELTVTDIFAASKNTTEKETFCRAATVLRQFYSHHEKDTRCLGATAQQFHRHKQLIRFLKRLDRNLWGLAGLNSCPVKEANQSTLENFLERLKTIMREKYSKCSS", "assay": "HEK-Blue IL-4/IL-13 cell-based reporter (SEAP) IL-4 inhibition assay", "details": "Example 2, quadruplicate; read-out: EC50 of IL-4 inhibition in HEK-Blue IL-4/IL-13 cells", "method": "HEK-Blue IL-4/IL-13 cells were purchased from Invivogen and maintained in DMEM complete with 10% fetal bovine serum, 10 μg/ml of blasticidin and 100 μg/ml of Zeocin, 100 μg/mL Normocin, and 100 U/mL-100 μg/mL Pen-Strep. Cells used for assays were between passages 12 and 18. […] HEK-Blue IL-4/IL-13 cells were trypsinized, spun down, and resuspended in DMEM with 10% heat-inactivated FBS, and 100 U/mL-100 μg/mL Pen-Strep at a concentration of 3.125E5/mL. 160 μL of the cell suspension was added to each well of a 96 well plate, avoiding the edges of the plate and equilibrated in an incubator for 1 hour. After 2 hours, 40 μL of the small molecule/IL-4 solution was added to each well. Each measurement performed in quadruplicate. Cells were incubated for 20 hours at 37° C./5% CO2. Quanti-Blue was prepared according to manufacture and 160 μL added to each well of a 96 well plate, avoiding edges. 40 μL of cell supernatant was added to each well and then incubated for 3 hours at 37° C. The optical density was then read at 650 nm with a Molecular Devices SpectraMax M5 Microplate Reader. Data was plotted and analyzed in GraphPad Prism 8.\nHEK-Blue IL-4/IL-13 cells were purchased from Invivogen and maintained in DMEM complete with 10% fetal bovine serum, 10 μg/ml of blasticidin and 100 μg/ml of Zeocin, 100 μg/mL Normocin, and 100 U/mL-100 μg/mL Pen-Strep. Cells used for assays were between passages 12 and 18. Prior to screening small molecules, the SEAP production induced by IL-4 alone was tested in the cells (FIG. 13) and determined to be 0.3 ng/mL. The EC25 for the IL-4 induced SEAP production (0.1 ng/mL final well concentration) was chosen for running small molecule inhibition assays.\nFor screening small molecules, 25 µL of each molecule (FIG. 9) in DMEM with 4% DMSO was added to 25 μL of 1 ng/ml IL-4 in DMEM and incubated for 2 hours at 37° C. HEK-Blue IL-4/IL-13 cells were trypsinized, spun down, and resuspended in DMEM with 10% heat-inactivated FBS, and 100 U/mL-100 μg/mL Pen-Strep at a concentration of 3.125E5/mL. 160 μL of the cell suspension was added to each well of a 96 well plate, avoiding the edges of the plate and equilibrated in an incubator for 1 hour. After 2 hours, 40 μL of the small molecule/IL-4 solution was added to each well. Each measurement was performed in […]. Cells were incubated for 20 hours at 37° C./5% CO2. Quanti-Blue was prepared according to manufacture and 160 μL added to each well of a 96 well plate, avoiding edges. 40 μL of cell supernatant was added to each well and then incubated for 3 hours at 37° C. The optical density was then read at 650 nm with a Molecular Devices SpectraMax M5 Microplate Reader. Data was plotted and analyzed in GraphPad Prism 8.\nHEK-Blue IL-4/IL-13 cells used to screen analogs of compound 52 from ACS Chemical Biology paper (also referred to herein as D9). Assay was run as described in Examples 2 and 3. All compounds were screened at 10 μM, 1 μM, and 250 nM in quadruplicate. The results are depicted in FIGS. 17-21."}}}
{"compound": "N#Cc1c(-c2ccc(O)c(O)c2)cc(-c2ccc(F)cc2)nc1N", "note": "[Compound D9]", "values": [{"measurement": "EC50", "setting": "[1]", "result": 3.1, "unit": "µM"}, {"measurement": "EC50", "setting": "pSTAT6 in Ramos cells", "result": 6.12, "unit": "µM"}, {"measurement": "EC50", "setting": "IL-4", "result": 5.73, "unit": "µM"}]}
